In patent EP1082127B1 (WARNER-LAMBERT COMPANY LLC, priority 1998, dated 1999):

What was measured:
ICE [1] = biological target: T1, ICE (Homo sapiens, UniProt P29466); experiment: ICE inhibition, Ki determination (fluorogenic substrate Ac-Tyr-Val-Ala-Asp-AMC); format: biochemical; conditions: 15 µM Ac-Tyr-Val-Ala-Asp-AMC, 0.5 nM enzyme, 30°C, reversible competitive model
T1 sequence (P29466 120-297 limits assumed): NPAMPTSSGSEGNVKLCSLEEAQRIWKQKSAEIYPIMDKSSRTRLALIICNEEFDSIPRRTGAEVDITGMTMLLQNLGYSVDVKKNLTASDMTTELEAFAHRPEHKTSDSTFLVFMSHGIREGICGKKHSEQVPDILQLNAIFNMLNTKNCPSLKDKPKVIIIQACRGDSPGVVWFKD
T1 sequence (P29466 317-404 limits assumed): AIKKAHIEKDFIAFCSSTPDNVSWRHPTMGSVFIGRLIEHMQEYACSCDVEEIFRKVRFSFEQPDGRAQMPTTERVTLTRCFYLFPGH
Procedure: Serial dilutions of each compound of the invention are prepared using an initial 8-fold dilution of a DMSO stock into HGE (100 mM HEPES, 20% glycerol v/v, 0.5 mM EDTA), followed by seven serial 2-fold dilutions into HGE + 12.5% DMSO. Ten microliters of diluted stocks or of vehicle (HGE + 12.5% DMSO) are placed in triplicate onto a 96-well microtiter plate. Enzyme is diluted into assay buffer (HGE, 5 mM DTT, 15 µM Ac-Tyr-Val-Ala-Asp-AMC; 0.5 nM final enzyme concentration, pre-warmed to 30°C), and this reaction mixture is added to the plate at 90 µL/well. Substrate hydrolysis is monitored for 300 seconds at 30°C using 385 and 460 nm excitation and emission filters, respectively. Triplicate curves are averaged, and slopes are evaluated by linear regression. To evaluate Ki, plots of percent inhibition vs inhibitor concentration are fit by non-linear regression to a reversible, competitive model: [formula] where the competition factor is (1 + [S]/KM) = 2.

ICE [2] = biological target: T1, ICE; experiment: ICE Colorimetric Dose-Response (IC50) Assay; format: biochemical; conditions: 60 minutes preincubation, 50 µM Ac-Tyr-Val-Ala-Asp-pNA, 25°C
Procedure: Diluted inhibitor stocks are prepared by two-fold serial dilution from a primary stock whose concentration is selected (based on screening results or on prior attempts at IC50 evaluation) to achieve approximately 95% inhibition in the most concentrated well. Aliquots of each dilution are transferred to a microtitre plate in triplicate.
ICE enzyme is diluted to approximately 24 nM in HGE buffer (100 mM Hepes pH 7.5, 0.5 mM EDTA, 20% glycerol, 0.1% Bovine Serum Albumin (BSA), and activated by adding dithiothreitol (DTT) to a final concentration of 5 mM. The activated enzyme is then aliquoted into wells containing inhibitor or vehicle, and the plate is preincubated for 60 minutes at ambient temperature. Substrate (Ac-Tyr-Val-Ala-Asp-pNA) is added to each well to a final concentration of 50 µM, and plates are placed in the microtitre plate-reader thermostated to 25°C. Beginning 5 minutes after addition of substrate, absorbance (405 nm) of wells is monitored for 1 hour, and activity is calculated as the mean rate of change in absorbance during this interval.

[3] = tested on: IL-1β production in human peripheral blood mononuclear cells (PBMCs); experiment: PBMC Cellular Assay - IC50 Determinations (LPS-stimulated IL-1β production, ELISA); format: cell-based; conditions: human PBMCs stimulated overnight with 10 ng/mL LPS, mature IL-1β by ELISA
Source text: Further evidence that compounds of Formula I are inhibitors of ICE is provided by their ability to inhibit IL-1β production in human peripheral blood mononuclear cells (PBMCs) as described herein. PBMCs are isolated from heparinized blood by centrifugation over a ficoll cushion, then washed three times with phosphate-buffered saline. PBMCs are suspended in a medium containing RPMI 1640 with glutamine, penicillin, streptomycin, and 2% human AB serum, then plated at 10^6 cells per well in 96-well flat bottom plates. PBMCs are stimulated overnight with 10 ng/mL of lipopolysaccharide (LPS, E. coli strain 0111:B4; Calbiochem) in the presence or absence of a compound of Formula I. Medium is harvested, and the level of mature IL-1β was determined using an ELISA kit from R&D Systems. Cells were cultured for an additional 4 hours in the presence of 3-(4,5-dimethylthiazol-2-yl)-2,5-diphenyltetrazolium bromide (MTT) to determine viability.

| SMILES | Ki (ICE [1]) [nM] | IC50 (ICE [2]) [nM] | IC50 [3] [nM] |
| --- | --- | --- | --- |
| CCOC1OC(=O)CC1NC(=O)C(CC(=O)NCCc1c[nH]c2ccc(F)cc12)C(C)C (stereo not drawn) [Example 52, N^1-(2-Ethoxy-5-oxo-tetrahydro-furan-3-yl)-N^4-[2-(5-fluoro-1H-indol-3-yl)-ethyl]-2-isopropyl-succinamide] | 18.5 | 486 | 750 |
| CCOC1OC(=O)CC1NC(=O)C(CC(=O)NCCc1ccccc1)C(C)C (stereo not drawn) [Example 48, N^1-(2-Ethoxy-5-oxo-tetrahydro-furan-3-yl)-2-isopropyl-N^4-[2-(phenyl)-ethyl]-succinamide] | 1010 | 59900 | 13500 |
| CCOC1OC(=O)CC1NC(=O)C(CC(=O)NCCc1c[nH]c2cc(OC)ccc12)C(C)C (stereo not drawn) [Example 40, N^1-(2-Ethoxy-5-oxo-tetrahydro-furan-3-yl)-2-isopropyl-N^4-[2-(6-methoxy-1H-indol-3-yl)-ethyl]-succinamide] | 35.4 | 1150 | 2900 |
| CCOC(=O)CC(C#N)NC(=O)C(CC(=O)NCCOc1ccccc1)C(C)C (stereo not drawn) [Example 64, 3-Cyano-3-{3-methyl-2-[(2-phenoxy-ethylcarbamoyl)-methyl]-butyrylamino}-propionic acid ethyl ester] | > 100000 |  | > 100000 |
| CCOC1OC(=O)CC1NC(=O)C(CC(=O)NCCNc1ccccc1)C(C)C (stereo not drawn) [Example 43, N^1-(2-Ethoxy-5-oxo-tetrahydro-furan-3-yl)-2-isopropyl-N^4-(2-phenylamino-ethyl)-succinamide] | 98.1 | 2280 | 7500 |
| CCOC1OC(=O)CC1NC(=O)C(CC(=O)NCCn1ncc2ccccc21)C(C)C (stereo not drawn) [Example 42, N^1-(2-Ethoxy-5-oxo-tetrahydro-furan-3-yl)-N^4-(2-indazol-1-yl-ethyl)-2-isopropyl-succinamide] | 191 | 1730 | 7500 |
| CCOC1OC(=O)CC1NC(=O)C(CC(=O)NCCn1ccc2ccccc21)C(C)C (stereo not drawn) [Example 50, N^1-(2-Ethoxy-5-oxo-tetrahydro-furan-3-yl)-N^4-(2-indol-1-yl-ethyl)-2-isopropyl-succinamide] | 53.8 | 924 | 2000 |
| CCOC1OC(=O)CC1NC(=O)C(CC(=O)NCCCCc1ccccc1)C(C)C (stereo not drawn) [Example 49, N^1-(2-Ethoxy-5-oxo-tetrahydro-furan-3-yl)-2-isopropyl-N^4-[4-(phenyl)-butyl]-succinamide] | 2150 | 123000 |  |
| CCOC1OC(=O)CC1NC(=O)C(CC(=O)NCCCc1cc(OC)c(OC)c(OC)c1)C(C)C (stereo not drawn) [Example 47, N^1-(2-Ethoxy-5-oxo-tetrahydro-furan-3-yl)-2-isopropyl-N^4-[3-(3,4,5-trimethoxy-phenyl)-propyl]-succinamide] | 1930 | 112000 | 11000 |
| CCOC1OC(=O)CC1NC(=O)C(CC(=O)NCCc1c[nH]c2cc(F)ccc12)C(C)C (stereo not drawn) [Example 44, N^1-(2-Ethoxy-5-oxo-tetrahydro-furan-3-yl)-N^4-[2-(6-fluoro-1H-indol-3-yl)-ethyl]-2-isopropyl-succinamide] | 47.5 | 1220 | 2500 |

The remaining compounds from weak to strong by Ki (ICE [1]), led by results:

| Ki (ICE [1]) [nM] | IC50 (ICE [2]) [nM] | SMILES | IC50 [3] [nM] |
| --- | --- | --- | --- |
| 107000 |  | CC(C)C(CC(=O)NCCOc1ccccc1)C(=O)NC(C#N)CC(=O)O (stereo not drawn) [Example 65, 3-Cyano-3-{3-methyl-2-[(2-phenoxy-ethylcarbamoyl)-methyl]-butyrylamino}-propionic acid] | > 100000 |
| 6920 | 197000 | CCOC(=O)CC(C=O)NC(=O)C(CC(=O)NCCOc1ccccc1)C(C)C (stereo not drawn) [Example 63, 3-{3-Methyl-2-[(2-phenoxy-ethylcarbamoyl)-methyl]-butyrylamino}-4-oxo-butyric acid ethyl ester] | 14500 |
| 446 | 13200 | CCOC1OC(=O)CC1NC(=O)C(CC(=O)NCCOc1ccccc1)C(C)C (stereo not drawn) [Example 39, N^1-(2-Ethoxy-5-oxo-tetrahydro-furan-3-yl)-2-isopropyl-N^4-(2-phenoxyethyl)-succinamide] | 5000 |
| 409 | 13000 | CCOC1OC(=O)CC1NC(=O)C(CC(=O)NCCn1nnc2ccccc21)C(C)C (stereo not drawn) [Example 41, N^4-(2-Benzotriazol-1-yl-ethyl)-N^1-(2-ethoxy-5-oxo-tetrahydro-furan-3-yl)-2-isopropyl-succinamide] | 17500 |
| 274 | 2560 | COc1cc(CCCNC(=O)C[C@H](C(=O)NC(C=O)CC(=O)O)C(C)C)cc(OC)c1OC (stereo partly drawn) [Example 62, 3-(3-methyl-2-{[3-(3,4,5-trimethoxy-pheny)-propylcarbamoyl]-methyl}-butyrylamino)-4-oxo-butyric acid] | 23000 |
| 259 | 15000 | CCOC1OC(=O)CC1NC(=O)[C@@H](CC(=O)NCCCc1ccccc1)C(C)C (stereo partly drawn) [Example 51, N^1-(2-Ethoxy-5-oxo-tetrahydro-furan-3-yl)-2-isopropyl-N^4-[4-(phenyl)-propyl]-succinamide] | 16200 |
| 133 | 1670 | CC(C)C(CC(=O)N(C)CCOc1ccccc1)C(=O)NC(C=O)CC(=O)O (stereo not drawn) [Example 22, 3-(3-Methyl-2-{[methyl-(2-phenoxy-ethyl)-carbamoyl]-methyl}-butyrylamino)-4-oxo-butyric acid] | 19000 |
| 107 | 8.7 | CC(C)C(CC(=O)NCCCc1ccccc1)C(=O)NC(CC(=O)O)C(=O)COc1cc2ccccc2cc1-c1ncc[nH]1 (stereo not drawn) [Example 14, 5-[3-(1H-Imidazol-2-yl)-naphthalen-2-yloxy]-3-{3-methyl-2-[(3-phenyl-propylcarbamoyl)-methyl]-butyrylamino}-4-oxo-pentanoic acid] | 19000 |
| 51.1 | 1060 | CCOC1OC(=O)CC1NC(=O)C(CC(=O)NCCn1cnc2ccccc21)C(C)C (stereo not drawn) [Example 35, N^4-(2-Benzoimidazol-1-yl-ethyl)-N^1-(2-ethoxy-5-oxo-tetrahydro-furan-3-yl)-2-isopropyl-succinamide] | 5500 |
| 15 | 540 | CC(C)[C@H](CC(=O)NCCOc1ccccc1)C(=O)NC(C=O)CC(=O)O (stereo partly drawn) [Example 8] | 3750 |
